Measured values reported in patent US5145848A, “Amino anthracenediones-bis platinum complexes, useful as antitumoral agents” (priority 1987, dated 1992).

Columns and labels:
[1] = test system: leukaemia P388; assay: Antitumour activity against leukaemia P388 in rats CD2 F1, i.p. (Table I); type: in vivo; conditions: for MST / T/C % / TOX: day 1; for LTS (60 days): day 1, 60 days
Method: 10^5 leukaemic cells were injected at day 0 and the compounds were administered intraperitoneally the day after, defined as day 1 of the experiment.

[2] = test system: K562 cells; assay: In vitro growth inhibition of human erythroleukosis K562 (Table III); type: cell-based
Method: (§1) Effect of BBR 1939 on in vitro growth^b) of murine leukaemia^a)
L1210/CDDP and human erythroleukosis
K562 b - Comparison with CDDP:
(§2) ^a) 10^5 cells were plated in triplicate at time
(§3) ^b) means used: RPMI 1640 + 10 Y FCS (inactivated in warm) +
(§4) 2mercaptoethanol 10^-3 M
(§5) ^c) IC %: inhibition percentage of cellular growth (treated animals

[3] = test system: human tumors; conditions: cited from earlier work
[4] = test system: L1210/CDDP cells; assay: In vitro growth inhibition of murine leukaemia L1210/CDDP (Table III); type: cell-based
Method: as §1, §2, §3, §4, §5

[5] = test system: leukaemia L1210/CDDP; assay: Effect on leukaemia L1210/CDDP (cis-platinum resistant) in rats CD2 F1, i.p. (Table II); type: in vivo, rats CD2 Fl; conditions: for MST / T/C %: day 1; for LTS (60 days): day 1, 60 days
Method: ^a) 10^5 cell/rat injected i.p. at day
Compounds were administered at day "1

**Q.** For O=C1c2c(O)ccc(O)c2C(=O)c2c(NCCNCCO)ccc(NCCNCCO)c21 [Mitoxanthrone], which MST ([1]; 3.75 mg/Kg) is on record?
**A.** 32.5 days

**Q.** What about the T/C % ([1]; 3.75 mg/Kg) of the same compound?
**A.** 295%

**Q.** What about the TOX ([1]; 3.75 mg/Kg) of the same compound?
**A.** 0/7

**Q.** What about the “LTS (60 days)” value ([1]; 3.75 mg/Kg) of the same compound?
**A.** 2/7

**Q.** What about the MST ([1]; 11.1 mg/Kg) of the same compound?
**A.** 36.5 days

**Q.** And the T/C % ([1]; 11.1 mg/Kg)?
**A.** 331%

**Q.** What about the TOX ([1]; 11.1 mg/Kg) of the same compound?
**A.** 0/7

**Q.** What about the “LTS (60 days)” value ([1]; 11.1 mg/Kg) of the same compound?
**A.** 1/7

**Q.** And the MST ([1]; 18.4 mg/Kg)?
**A.** 42.5 days

**Q.** And the T/C % ([1]; 18.4 mg/Kg)?
**A.** 386%

**Q.** And the TOX ([1]; 18.4 mg/Kg)?
**A.** 0/7

**Q.** And the “LTS (60 days)” value ([1]; 18.4 mg/Kg)?
**A.** 1/7

**Q.** And the MST ([1]; 25.8 mg/Kg)?
**A.** 40.5 days

**Q.** What about the T/C % ([1]; 25.8 mg/Kg) of the same compound?
**A.** 368%

**Q.** And the TOX ([1]; 25.8 mg/Kg)?
**A.** 1/7

**Q.** What about the “LTS (60 days)” value ([1]; 25.8 mg/Kg) of the same compound?
**A.** 0/7

**Q.** For N.N.[Cl][Pt][Cl] [cis-platinum, cis-diaminodichloroplatinum II], which “IC % (inhibition percentage of cellular growth)” value ([2]; 1 ug/ml, after 24 hours) is on record?
**A.** 22%

**Q.** What about the “IC % (inhibition percentage of cellular growth)” value ([2]; 1 ug/ml, after 48 hours) of the same compound?
**A.** 52%

**Q.** What about the “IC % (inhibition percentage of cellular growth)” value ([2]; 1 ug/ml, after 72 hours) of the same compound?
**A.** 54%

**Q.** What about the “IC % (inhibition percentage of cellular growth)” value ([2]; 5 ug/ml, after 24 hours) of the same compound?
**A.** 28%

**Q.** What about the “IC % (inhibition percentage of cellular growth)” value ([2]; 5 ug/ml, after 48 hours) of the same compound?
**A.** 71%

**Q.** And the “IC % (inhibition percentage of cellular growth)” value ([2]; 5 ug/ml, after 72 hours)?
**A.** 82%

**Q.** What about the “IC % (inhibition percentage of cellular growth)” value ([2]; 10 ug/ml, after 24 hours) of the same compound?
**A.** 35%

**Q.** And the “IC % (inhibition percentage of cellular growth)” value ([2]; 10 ug/ml, after 48 hours)?
**A.** 76%

**Q.** What about the “IC % (inhibition percentage of cellular growth)” value ([2]; 10 ug/ml, after 72 hours) of the same compound?
**A.** 87%

**Q.** And the “IC % (inhibition percentage of cellular growth)” value ([2]; 50 ug/ml, after 24 hours)?
**A.** 52%

**Q.** And the “IC % (inhibition percentage of cellular growth)” value ([2]; 50 ug/ml, after 48 hours)?
**A.** 85%

**Q.** And the “IC % (inhibition percentage of cellular growth)” value ([2]; 50 ug/ml, after 72 hours)?
**A.** 91%

**Q.** And the “IC % (inhibition percentage of cellular growth)” value ([2]; 100 ug/ml, after 24 hours)?
**A.** 56%

**Q.** And the “IC % (inhibition percentage of cellular growth)” value ([2]; 100 ug/ml, after 48 hours)?
**A.** 85%

**Q.** What about the “IC % (inhibition percentage of cellular growth)” value ([2]; 100 ug/ml, after 72 hours) of the same compound?
**A.** 91%

**Q.** What about the MST ([1]; 6 mg/Kg) of the same compound?
**A.** 22.5 days

**Q.** And the T/C % ([1]; 6 mg/Kg)?
**A.** 198%

**Q.** And the “LTS (60 days)” value ([1]; 6 mg/Kg)?
**A.** 0/7

**Q.** And the MST ([1]; 10 mg/Kg)?
**A.** 18.8 days

**Q.** What about the T/C % ([1]; 10 mg/Kg) of the same compound?
**A.** 162%

**Q.** What about the “LTS (60 days)” value ([1]; 10 mg/Kg) of the same compound?
**A.** 0/7

**Q.** What about the MST ([1]; 14 mg/Kg) of the same compound?
**A.** 11.5 days

**Q.** What about the T/C % ([1]; 14 mg/Kg) of the same compound?
**A.** 99%

**Q.** And the “LTS (60 days)” value ([1]; 14 mg/Kg)?
**A.** 0/7

**Q.** And the clinical efficacy ([3]; clinical observation)?
**A.** Clinical observation confirms the efficacy of the compound in a number of human tumors

**Q.** And the side effects ([3]; clinical)?
**A.** serious gastro-intestinal, renal side effects, hematologic and neurologic complications (ototoxicity)

**Q.** And the “IC % (inhibition percentage of cellular growth)” value ([4]; 0.5 ug/ml, after 24 hours)?
**A.** 20%

**Q.** And the “IC % (inhibition percentage of cellular growth)” value ([4]; 0.5 ug/ml, after 48 hours)?
**A.** 8%

**Q.** And the “IC % (inhibition percentage of cellular growth)” value ([4]; 0.5 ug/ml, after 72 hours)?
**A.** 37%

**Q.** What about the “IC % (inhibition percentage of cellular growth)” value ([4]; 1 ug/ml, after 24 hours) of the same compound?
**A.** 30%

**Q.** What about the “IC % (inhibition percentage of cellular growth)” value ([4]; 1 ug/ml, after 48 hours) of the same compound?
**A.** 18%

**Q.** What about the “IC % (inhibition percentage of cellular growth)” value ([4]; 1 ug/ml, after 72 hours) of the same compound?
**A.** 44%

**Q.** And the “IC % (inhibition percentage of cellular growth)” value ([4]; 5 ug/ml, after 24 hours)?
**A.** 54%

**Q.** What about the “IC % (inhibition percentage of cellular growth)” value ([4]; 5 ug/ml, after 48 hours) of the same compound?
**A.** 87%

**Q.** And the “IC % (inhibition percentage of cellular growth)” value ([4]; 5 ug/ml, after 72 hours)?
**A.** 84%

**Q.** What about the “IC % (inhibition percentage of cellular growth)” value ([4]; 10 ug/ml, after 24 hours) of the same compound?
**A.** 78%

**Q.** And the “IC % (inhibition percentage of cellular growth)” value ([4]; 10 ug/ml, after 48 hours)?
**A.** 92%

**Q.** And the “IC % (inhibition percentage of cellular growth)” value ([4]; 10 ug/ml, after 72 hours)?
**A.** 86%

**Q.** What about the “IC % (inhibition percentage of cellular growth)” value ([4]; 50 ug/ml, after 24 hours) of the same compound?
**A.** 80%

**Q.** What about the “IC % (inhibition percentage of cellular growth)” value ([4]; 50 ug/ml, after 48 hours) of the same compound?
**A.** 99%

**Q.** What about the “IC % (inhibition percentage of cellular growth)” value ([4]; 50 ug/ml, after 72 hours) of the same compound?
**A.** 100%

**Q.** And the MST ([5]; 5 mg/Kg)?
**A.** 11.1 days

**Q.** What about the T/C % ([5]; 5 mg/Kg) of the same compound?
**A.** 97%

**Q.** What about the “LTS (60 days)” value ([5]; 5 mg/Kg) of the same compound?
**A.** 0/10

**Q.** And the MST ([5]; 7.5 mg/Kg)?
**A.** 11.6 days

**Q.** And the T/C % ([5]; 7.5 mg/Kg)?
**A.** 101%

**Q.** What about the “LTS (60 days)” value ([5]; 7.5 mg/Kg) of the same compound?
**A.** 0/10

**Q.** What about the MST ([5]; 12.5 mg/Kg) of the same compound?
**A.** 9.3 days

**Q.** What about the T/C % ([5]; 12.5 mg/Kg) of the same compound?
**A.** 103%

**Q.** What about the “LTS (60 days)” value ([5]; 12.5 mg/Kg) of the same compound?
**A.** 0/10
